Laboratory results from article PMC9680032, “Conformationally Locked Carbocyclic Nucleosides Built on a 4′-Hydroxymethyl-3′-hydroxybicyclo[4.1.0]heptane Template. Stereoselective Synthesis and Antiviral Activity” (The Journal of Organic Chemistry, 2022).
Converted amounts (≈) assume the structure as drawn.

Assays:
[1] = in vitro; conditions: human
[2] = tested on: Vaccinia virus; test: microbe, parasite or virus in culture; assay type: cell-based; conditions: for EC50: Orthopoxvirus vaccinia, HEL, read-out: Antiviral EC50 Vaccinia virus
[3] = tested on: Herpes simplex virus-1 (KOS); test: microbe, parasite or virus in culture; assay type: cell-based; conditions: for EC50: Human alphaherpesvirus 1, HEL, read-out: Antiviral EC50 Herpes simplex virus-1 (KOS)
[4] = tested on: Herpes simplex virus-2 (G); test: microbe, parasite or virus in culture; assay type: cell-based; conditions: for EC50: Human alphaherpesvirus 2, HEL, read-out: Antiviral EC50 Herpes simplex virus-2 (G)
[5] = tested on: Zika virus; test: Antiviral CPE assay, Zika virus in Vero cells; assay type: cell-based; conditions: for EC50: Zika virus, Vero
[6] = tested on: Sindbis virus; test: Antiviral CPE assay, Sindbis virus in Vero cells; assay type: cell-based; conditions: for EC50: Sindbis virus, Vero
[7] = tested on: Reo-virus-1; test: Antiviral CPE assay, Reovirus-1 in Vero cells; assay type: cell-based; conditions: for EC50: Vero
[8] = tested on: Influenza B virus B/Ned/537/05; test: Antiviral CPE assay, Influenza B in MDCK cells; assay type: cell-based; conditions: MDCK cell cultures; for EC50: Influenza B virus
[9] = tested on: Vesicular stomatitis virus; test: microbe, parasite or virus in culture; assay type: cell-based; conditions: for EC50: Vesicular stomatitis virus, HEp-2, read-out: Antiviral EC50 Vesicular stomatitis virus
[10] = tested on: Coxsackie virus B4; test: Antiviral CPE assay, Coxsackie virus B4 in Vero cells; assay type: cell-based; conditions: for EC50: Enterovirus B, B4, Vero
[11] = Cytotoxicity in HEp-2 cell cultures (MTS); conditions: human
[12] = tested on: Coxsackie virus B4; test: Antiviral CPE assay, Coxsackie virus B4 in HEp-2 cells; assay type: cell-based; conditions: for EC50: Enterovirus B, B4, HEp-2
[13] = Cytotoxicity in Vero cell cultures (MTS); assay type: cell-based, African green monkey; conditions: African green monkey, Vero cells (kidney epithelial cells), uninfected, MTS assay, read-out: Cytotoxixity CC50
[14] = tested on: Yellow Fever virus; test: microbe, parasite or virus in culture; assay type: cell-based; conditions: for EC50: Yellow fever virus, Vero, read-out: Antiviral EC50 Yellow Fever virus, Vero cell cultures
[15] = in vitro; conditions: dog
[16] = tested on: Influenza A virus A/Ned/378/05A (H1N1); test: Antiviral CPE assay, Influenza A (H1N1) in MDCK cells; assay type: cell-based; conditions: for EC50: Influenza A virus, H1N1, MDCK
[17] = tested on: Human immunodeficiency virus (IIIB); test: Antiviral CPE assay, HIV-1 (IIIB) in MT-4 cells; assay type: cell-based, human immunodeficiency virus type 1 (HIV-1); conditions: for EC50: Human immunodeficiency virus 1, IIIB, MT4
[18] = tested on: Influenza A virus A/HK/7/87 (H3N2); test: Antiviral CPE assay, Influenza A (H3N2) in MDCK cells; assay type: cell-based; conditions: for EC50: Influenza A virus, H3N2, MDCK
[19] = tested on: Human immunodeficiency virus (ROD); test: Antiviral CPE assay, HIV-2 (ROD) in MT-4 cells; assay type: cell-based; conditions: for EC50: Human immunodeficiency virus 2, MT4
[20] = tested on: Human Coronavirus (229E); test: microbe, parasite or virus in culture; assay type: cell-based; conditions: for EC50: Human coronavirus 229E, HEL, read-out: Antiviral EC50 Human Coronavirus (229E)
[21] = tested on: Adeno virus-2; test: organism not typed; assay type: cell-based; conditions: for EC50: HEL, read-out: Antiviral EC50 Adeno virus-2
[22] = Cytotoxicity in MT-4 cell cultures (MTS); conditions: human, Cytotoxixity CC50, MT-4 cell cultures, MTS assay
[23] = tested on: Punta Toro virus; test: Antiviral CPE assay, Punta Toro virus in Vero cells; assay type: cell-based; conditions: for EC50: Punta Toro virus, Vero
[24] = tested on: Respiratory syncytial virus; test: Antiviral CPE assay, Respiratory syncytial virus in HEp-2 cells; assay type: cell-based; conditions: for EC50: human respiratory syncytial virus, HEp-2
[25] = tested on: MDCK (Madin-Darby Canine Kidney) cells; conditions: dog
[26] = tested on: HEp-2 (Human Epidermoid carcicoma) cells; test: Cytotoxicity in HEp-2 cell cultures (MTS); conditions: HEp-2 cell cultures, MTS assay
[27] = tested on: HEL cells; conditions: human
[28] = tested on: Vero cells; test: Cytotoxicity in Vero cell cultures (MTS); assay type: cell-based, African green monkey; conditions: MTS assay
[29] = tested on: MT-4 cells (human lymphocytic cell line); test: Cytotoxicity in MT-4 cell cultures (MTS); conditions: MT-4 cell cultures, MTS assay
[30] = in vitro; conditions: human, Cytotoxixity CC50

## Nc1nc(O)c2ncn(COC(CO)CO)c2n1 [Ganciclovir, reference compound]
[1]
  CC50: > 100 µM
[2]
  EC50: > 100 µM
[3]
  EC50: 0.4 µM
[4]
  EC50: 0.09 µM

## NC(=O)c1nnn(C2CC(O)C(CO)C3CC32)c1N (stereo not drawn) [Compound 3b, 5-Amino-1-[(1′S,2′S,4′R,5′R,6′R)-4′-hydroxy-5′-(hydroxymethyl)bicyclo-[4.1.0]hept-2′-yl]-1H-1,2,3-triazole-4-carboxamide]
[2]
  EC50: > 50 mg/L
[5]
  EC50: > 50 mg/L
[6]
  EC50: > 50 mg/L
[7]
  EC50: > 50 mg/L
[8]
  EC50: > 50 mg/L
[3]
  EC50: > 50 mg/L
other
  melting point: 210 to 213 °C
[9]
  EC50: > 50 mg/L
[10]
  EC50: > 50 mg/L
[11]
  CC50: > 50 mg/L
[12]
  EC50: > 50 mg/L
[13]
  CC50: > 50 mg/L
[14]
  EC50: > 50 mg/L
[15]
  CC50: > 50 mg/L
[16]
  EC50: > 50 mg/L
[17]
  EC50: > 125 mg/L
[4]
  EC50: > 50 mg/L
[18]
  EC50: > 50 mg/L
[19]
  EC50: > 125 mg/L
[20]
  EC50: > 50 mg/L
[21]
  EC50: > 50 mg/L
[22]
  CC50: > 125 mg/L
[23]
  EC50: > 50 mg/L
[24]
  EC50: > 50 mg/L

## Cc1cn(C2CC(O)C(CO)C3CC32)c(=O)[nH]c1=O (stereo not drawn) [Compound 2, 1-[(1′S,2′S,4′S,5′R,6′R)-4′-Hydroxy-5′-(hydroxymethyl)bicyclo[4.1.0]hept-2′-yl]-5-methylpyrimidine-2,4(1H,3H)-dione]
[2]; HEL cell cultures
  Antiviral EC50 Vaccinia virus: > 50 mg/L
[5]
  Antiviral EC50 Zika virus: > 50 mg/L
[6]
  Antiviral EC50 Sindbis virus: > 50 mg/L
[7]
  Antiviral EC50 Reo-virus-1: > 50 mg/L
[25]
  Cytotoxixity CC50: > 50 mg/L
[8]
  Antiviral EC50 Influenza B virus B/Ned/537/05: > 50 mg/L
[3]
  Antiviral EC50 Herpes simplex virus-1 (KOS): > 50 mg/L
[9]; HEp-2 cell cultures
  Antiviral EC50 Vesicular stomatitis virus: > 50 mg/L
[10]
  Antiviral EC50 Coxsackie virus B4: > 50 mg/L
[26]
  Cytotoxixity CC50: > 50 mg/L
[27]
  Cytotoxixity CC50: > 50 mg/L
[12]
  Antiviral EC50 Coxsackie virus B4: > 50 mg/L
[28]
  Cytotoxixity CC50: > 50 mg/L
[14]; Vero cell cultures
  Antiviral EC50 Yellow Fever virus: > 50 mg/L
[16]
  Antiviral EC50 Influenza A virus A/Ned/378/05 (H1N1): > 50 mg/L
[17]
  Antiviral EC50 Human immunodeficiency virus (IIIB): > 125 mg/L
[4]
  Antiviral EC50 Herpes simplex virus-2 (G): > 50 mg/L
[18]
  Antiviral EC50 Influenza A virus A/HK/7/87 (H3N2): > 50 mg/L
[19]
  Antiviral EC50 Human immunodeficiency virus (ROD): > 125 mg/L
[20]
  Antiviral EC50 Human Coronavirus (229E): > 50 mg/L
[21]
  Antiviral EC50 Adeno virus-2: > 50 mg/L
[29]
  Cytotoxixity CC50: > 125 mg/L
[23]
  Antiviral EC50 Punta Toro virus: > 50 mg/L
[24]
  Antiviral EC50 Respiratory syncytial virus: > 50 mg/L

## O=c1[nH]c(=O)n([C@H]2C[C@H](O)[C@@H](CO)O2)cc1/C=C/Br [Brivudin, reference compound]
[1]
  CC50: > 250 µM
[2]
  EC50: 12.6 µM
[3]
  EC50: 0.2 µM
[4]
  EC50: 22.1 µM

## Cc1cn(C2CC(O)C(CO)C3CC32)c(=O)[nH]c1=O (stereo not drawn) [Compound 1a, 1-((1′S,2′S,4′R,5′R,6′R)-4′-Hydroxy-5′-(hydroxymethyl)bicyclo[4.1.0]heptan-2′-yl)-5-methylpyrimidine-2,4(1H,3H)-dione]
[2]
  EC50: > 50 mg/L
[5]
  EC50: > 50 mg/L
[6]
  EC50: > 50 mg/L
[7]
  EC50: > 50 mg/L
[8]
  EC50: > 50 mg/L
[3]
  EC50: > 50 mg/L
other
  melting point: 189 to 191 °C
[9]
  EC50: > 50 mg/L
[10]
  EC50: > 50 mg/L
[11]
  CC50: > 50 mg/L
[12]
  EC50: > 50 mg/L
[13]
  CC50: > 50 mg/L
[14]
  EC50: > 50 mg/L
[15]
  CC50: > 50 mg/L
[16]
  EC50: > 50 mg/L
[17]
  EC50: > 99.1 mg/L
[4]
  EC50: > 50 mg/L
[18]
  EC50: > 50 mg/L
[19]
  EC50: > 99.1 mg/L
[20]
  EC50: > 50 mg/L
[21]
  EC50: > 50 mg/L
[22]
  CC50: 99.1 mg/L (≈ 372 µM)
[23]
  EC50: > 50 mg/L
[24]
  EC50: > 50 mg/L

## Nc1ccn(C[C@@H](CO)OCP(=O)(O)O)c(=O)n1 [Cidofovir, reference compound]
[1]
  CC50: > 250 µM
[2]
  EC50: 8.7 µM
[3]
  EC50: 39.3 µM
[4]
  EC50: 7.5 µM
[21]
  EC50: 9.9 µM

## Nc1ccn([C@@H]2CS[C@H](CO)O2)c(=O)n1 [Lamivudine, reference compound]
[30]
  CC50: > 20 mg/L
[17]
  EC50: 0.58 mg/L (≈ 2.53 µM)
[19]
  EC50: 2.27 mg/L (≈ 9.9 µM)

## Cc1ccnc2c1NC(=O)c1cccnc1N2C1CC1 [Neviparine, reference compound]
[17]
  Antiviral EC50 Human immunodeficiency virus (IIIB): 0.075 mg/L
[19]
  Antiviral EC50 Human immunodeficiency virus (ROD): > 4 mg/L
[29]
  Cytotoxixity CC50: > 4 mg/L

## Nc1nc2c(ncn2COCCO)c(=O)[nH]1 [Acyclovir, reference compound]
[1]
  CC50: > 250 µM
[2]
  EC50: > 250 µM
[3]
  EC50: 1.9 µM
[4]
  EC50: 0.5 µM

## OCC1C(O)CC(n2cc(-c3ccccc3)nn2)C2CC12 [Compound 3c, (1R,2R,3R,5S,6S)-2-(Hydroxymethyl)-5-(4″-phenyl-1H-1″,2″,3″-triazol-1-yl)bicyclo[4.1.0]heptan-3-ol]
[2]
  EC50: > 50 mg/L
[5]
  EC50: > 50 mg/L
[6]
  EC50: > 50 mg/L
[7]
  EC50: > 50 mg/L
[8]
  EC50: > 50 mg/L
[3]
  EC50: > 50 mg/L
[9]
  EC50: > 50 mg/L
[10]
  EC50: > 50 mg/L
[11]
  CC50: > 50 mg/L
[12]
  EC50: > 50 mg/L
[13]
  CC50: > 50 mg/L
[14]
  EC50: > 50 mg/L
[15]
  CC50: 20.4 mg/L (≈ 71.5 µM)
[16]
  EC50: > 50 mg/L
[17]
  EC50: > 96.2 mg/L
[4]
  EC50: > 50 mg/L
[18]
  EC50: > 50 mg/L
[19]
  EC50: > 96.2 mg/L
[20]
  EC50: > 50 mg/L
[21]
  EC50: > 50 mg/L
[22]
  CC50: 96.2 mg/L (≈ 337 µM)
[23]
  EC50: > 50 mg/L
[24]
  EC50: > 50 mg/L
